Laboratory results published in patent publication US8188059B2, “Compounds and methods for modulating expression of GCGR” (Isis Pharmaceuticals, Inc., priority 2006, dated 2012).
Strand notation (5' to 3'): a small letter for the sugar, then the base; units joined by * are phosphorothioate-linked, units joined directly phosphodiester-linked; [ ] holds rarer units or linkages, { } end groups; capitals alone tell only the bases. e = 2'-O-(2-methoxyethyl) (MOE); [5mC] = 5-methylcytosine; d = 2'-deoxy (DNA)

What was measured:
DGAT2 mRNA = test: Antisense inhibition of DGAT2 in A10 cells at 75 nM (Example 22, Table 81); format: cell-based, rat; conditions: approximately 24 hours
Protocol: Short antisense compounds targeted to a DGAT2 nucleic acid were tested for their effects on DGAT2 mRNA in vitro. Cultured A10 cells in a 96-well plate were treated with 75 nM of short antisense compound. After a treatment period of approximately 24 hours, RNA was isolated from the cells and DGAT2 mRNA levels were measured by quantitative real-time PCR, as described herein. DGAT2 mRNA levels were adjusted according to total RNA content as measured by RIBOGREEN®. […]

rat DGAT2 mRNA [1] = test: Dose-dependent inhibition of DGAT2 in A10 cells, 0.62-150 nM (Example 22, Table 83); format: cell-based
Protocol: Additional short antisense compounds targeted to DGAT2 mRNA were tested in vitro. A10 cells were prepared as described above and treated with 0.62, 1.85, 5.56, 16.67, 50.0, and 150.0 nM short antisense compounds to determine if DGAT2 inhibition occurs in a dose-dependent manner. DGAT2 mRNA was measured using quantitative real-time PCR, as described herein. […] Results are presented as percent inhibition of rat DGAT2, relative to untreated control cells.

rat DGAT2 mRNA [2] = test: Dose-dependent inhibition of DGAT2 in A10 cells, 6.25-200 nM (Example 22, Table 82); format: cell-based
Protocol: Additional short antisense compounds targeted to DGAT2 mRNA were tested in vitro in a dose-response experiment. A10 cells were prepared as described above and treated with 6.25, 12.5, 25.0, 50.0, 100.0, and 200.0 nM short antisense compounds to determine if DGAT2 inhibition occurs in a dose-dependent manner. […] Results are presented as percent inhibition, relative to untreated control cells.

SGLT2 mRNA = SGLT2 mRNA levels in kidney of Balb/c mice, twenty 1-10-1 MOE gapmers at 350 nmol/kg, PPS 534 and PPS 553 (Example 18, Table 74); format: in vivo, mouse; conditions: 350 nmol/kg i.p. twice per week for two weeks
Protocol: Twenty 1-10-1 MOE gapmers that are complementary to human/monkey/mouse/rat SGLT2 were designed, synthesized and tested in vivo for suppression of SGLT2 mRNA levels in kidney. Data are averages from two experiments in which male 6-week old Balb/c mice were administered intraperitoneal injections of 350 nmol/kg of oligonucleotide, twice per week, over a period of two weeks (a total of four injections). Mice were sacrificed 48 hours following the last administration and evaluated for SGLT2 mRNA levels in kidney. SGLT2 mRNA levels were determined by quantitative real-time PCR analysis according to standard procedures, using two different PCR primer probe sets, primer probe set (PPS) 534 and PPS 553. SGLT2 mRNA levels were normalized to cyclophilin mRNA levels, which were also measured by quantitative real-time PCR.

Substance	DGAT2 mRNA, % Control (DGAT2 mRNA)	percent inhibition of rat DGAT2 (rat DGAT2 mRNA [1]; 0.62 nM)	percent inhibition of rat DGAT2 (rat DGAT2 mRNA [1]; 1.85 nM)	percent inhibition of rat DGAT2 (rat DGAT2 mRNA [1]; 5.56 nM)	percent inhibition of rat DGAT2 (rat DGAT2 mRNA [1]; 16.67 nM)	percent inhibition of rat DGAT2 (rat DGAT2 mRNA [1]; 50 nM)	percent inhibition of rat DGAT2 (rat DGAT2 mRNA [1]; 150 nM)	also measured
372491 (antisense eA*e[5mC]*eA*dT*dG*dA*dG*dG*dA*dT*dG*dA*d[5mC]*eA*e[5mC]*eT) [compound 372491]	80%	–	–	–	–	–	–	–
372500 (antisense eG*eT*eG*dT*dG*dT*d[5mC]*dT*dT*d[5mC]*dA*d[5mC]*d[5mC]*eA*eG*e[5mC]) [compound 372500]	16%	0	0	0	18	64	88	–
372501 (antisense eT*eT*eG*dT*dG*dT*dG*dT*d[5mC]*dT*dT*d[5mC]*dA*e[5mC]*e[5mC]*eA) [compound 372501]	28%	1	5	10	11	25	68	–
372503 (antisense eG*e[5mC]*eA*dG*dG*dT*dT*dG*dT*dG*dT*dG*dT*e[5mC]*eT*eT) [compound 372503]	35%	7	10	4	25	54	80	–
372508 (antisense eA*eG*eT*dT*d[5mC]*d[5mC]*dT*dG*dG*dT*dG*dG*dT*e[5mC]*eA*eG) [compound 372508]	35%	0	0	6	14	39	71	–
372516 (antisense eT*eA*e[5mC]*dA*dG*dA*dA*dG*dG*d[5mC]*dA*d[5mC]*d[5mC]*e[5mC]*eA*eG) [compound 372516]	27%	1	10	0	4	35	81	–
372562 (antisense eG*eT*d[5mC]*dT*dT*dG*dG*dA*dG*dG*dG*d[5mC]*e[5mC]*eG) [compound 372562]	–	–	–	–	–	–	–	percent inhibition of DGAT2 (rat DGAT2 mRNA [2]; 6.25 nM): 0; percent inhibition of DGAT2 (rat DGAT2 mRNA [2]; 12.5 nM): 0; percent inhibition of DGAT2 (rat DGAT2 mRNA [2]; 50.0 nM): 36; percent inhibition of DGAT2 (rat DGAT2 mRNA [2]; 100.0 nM): 48; percent inhibition of DGAT2 (rat DGAT2 mRNA [2]; 200.0 nM): 75; percent inhibition of DGAT2 (rat DGAT2 mRNA [2]; […]): 0
372568 (antisense eG*eA*d[5mC]*dA*d[5mC]*dT*dG*d[5mC]*dA*dG*dG*d[5mC]*e[5mC]*eA) [compound 372568]	–	–	–	–	–	–	–	percent inhibition of DGAT2 (rat DGAT2 mRNA [2]; 6.25 nM): 0; percent inhibition of DGAT2 (rat DGAT2 mRNA [2]; 12.5 nM): 0; percent inhibition of DGAT2 (rat DGAT2 mRNA [2]; 50.0 nM): 26; percent inhibition of DGAT2 (rat DGAT2 mRNA [2]; 100.0 nM): 72; percent inhibition of DGAT2 (rat DGAT2 mRNA [2]; 200.0 nM): 69; percent inhibition of DGAT2 (rat DGAT2 mRNA [2]; […]): 15
372569 (antisense e[5mC]*eA*dT*dG*dA*dG*dG*dA*dT*dG*dA*d[5mC]*eA*e[5mC]) [compound 372569]	104%	–	–	–	–	–	–	–
379694 (antisense eG*dA*d[5mC]*dG*dA*dA*dG*dG*dT*d[5mC]*dT*eG) [compound 379694]	–	–	–	–	–	–	–	SGLT2 mRNA in kidney, % change relative to saline (SGLT2 mRNA; primer probe set 534): −42.1%; SGLT2 mRNA in kidney, % change relative to saline (SGLT2 mRNA; primer probe set 553): −54.4%
